Assay results as given in patent US9403830B2, “Inhibitors of leukotriene production” (Boehringer Ingelheim International GmbH, priority 2012, dated 2016).

Tests used:
[1] = target: T1, human LTA4 hydrolase (Homo sapiens, UniProt P09960); experiment: LTA4H Enzyme assay (peptidase, Arg-AMC cleavage); type: biochemical; details: LTA4H enzyme 1 nM, Arg-AMC substrate 50 μM, room temperature 1 h, fluorescence 380/460 nm
T1 sequence (P09960 1-611): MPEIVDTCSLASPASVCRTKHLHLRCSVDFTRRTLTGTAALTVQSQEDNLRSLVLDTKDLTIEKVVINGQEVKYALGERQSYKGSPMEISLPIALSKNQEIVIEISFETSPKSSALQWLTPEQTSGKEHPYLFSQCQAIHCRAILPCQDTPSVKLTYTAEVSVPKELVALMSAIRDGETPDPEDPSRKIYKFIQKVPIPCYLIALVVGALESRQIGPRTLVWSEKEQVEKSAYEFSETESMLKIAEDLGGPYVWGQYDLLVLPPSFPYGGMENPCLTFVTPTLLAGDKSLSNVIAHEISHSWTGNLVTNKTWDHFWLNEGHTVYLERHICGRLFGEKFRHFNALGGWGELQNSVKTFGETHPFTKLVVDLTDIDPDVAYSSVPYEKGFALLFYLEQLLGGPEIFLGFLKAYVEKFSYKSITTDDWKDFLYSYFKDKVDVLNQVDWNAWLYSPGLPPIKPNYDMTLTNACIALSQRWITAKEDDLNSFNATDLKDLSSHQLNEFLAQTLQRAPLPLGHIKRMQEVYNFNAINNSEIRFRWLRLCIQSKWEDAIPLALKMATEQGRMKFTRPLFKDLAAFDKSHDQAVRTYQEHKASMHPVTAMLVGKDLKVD
Procedure, shortened: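 Human LTA4H (1 nM final) incubated with compound and Arg-AMC (50 μM final) in 50 mM Tris-HCl pH 7.5, 100 mM KCl, 0.5% BSA, 1 h at room temperature. Product read as AMC fluorescence (ex 380/em 460 nm); IC50 reported.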

[2] = tested on: LTB4 synthesis in human whole blood; experiment: human whole blood (HWB) assay, inhibition of LTB4 production; type: cell-based; details: heparinized human whole blood, calcimycin 20 μM stimulation, plasma LTB4
Procedure, shortened: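 Plasma LTB4, quantified by HTRF immunoassay, is the read-out after calcimycin challenge (20 μM final, 30 min, 37 °C) of heparinized whole blood that had been pretreated with compound for 15 min at 37 °C; values given as IC50.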

| IC50 [1] [nM] | IC50 [2] [nM] | SMILES |
| --- | --- | --- |
| 0.18 | 180 | c1cc(-c2ccc(Oc3ccc4[nH]c(CN[C@H]5CCOC5)nc4c3)cc2)[nH]n1 [Example 194, {5-[4-(2H-Pyrazol-3-yl)-phenoxy]-1H-benzoimidazol-2-ylmethyl}-(S)-tetrahydro-furan-3-yl-amine] |
| 0.14 | 180 | OCC1CCCCN1Cc1nc2cc(Oc3ccc(-c4ccn[nH]4)cc3)ccc2[nH]1 (stereo not shown) [Example 195, (1-{5-[4-(2H-Pyrazol-3-yl)-phenoxy]-1H-benzoimidazol-2-ylmethyl}-piperidin-2-yl)-methanol] |
| 0.17 | 180 | FC(F)(F)C1CCN(Cc2nc3cc(Oc4ccc(-c5ccn[nH]5)cc4)ccc3[nH]2)C1 (stereo not shown) [Example 196, 5-[4-(2H-Pyrazol-3-yl)-phenoxy]-2-(3-trifluoromethyl-pyrrolidin-1-ylmethyl}-1H-benzoimidazole] |
| 0.46 | 180 | CN(C)C(=O)C1CCN(CC2Cc3ccc(Oc4ccc(-c5ccn[nH]5)cc4)cc3O2)CC1 (stereo not shown) [Example 197, 1-{6-[4-(2H-Pyrazol-3-yl)-phenoxy]-2,3-dihydro-benzofuran-2-ylmethyl}-piperidine-4-carboxylic acid dimethylamide] |
| 0.35 | 180 | O=C1CCCN1C1CCN(CC2Cc3ccc(Oc4ccc(-c5ccn[nH]5)cc4)cc3O2)CC1 (stereo not shown) [Example 198, 1-(1-{6-[4-(2H-Pyrazol-3-yl)-phenoxy]-2,3-dihydro-benzofuran-2-ylmethyl}-piperidin-4-yl)-pyrrolidin-2-one] |
| 0.13 | 190 | CCCN(CCO)Cc1nc2cc(Oc3ccc(-c4ccn[nH]4)cc3)ccc2[nH]1 [Example 199, 2-(Propyl-{5-[4-(2H-pyrazol-3-yl)-phenoxy]-1H-benzoimidazol-2-ylmethyl}-amino)-ethanol] |
| 0.47 | 190 | CC(=O)N[C@@H]1CCN(CCn2cc3cc(Oc4ccc(-c5ccn[nH]5)cc4)ccc3n2)C1 [Example 200, N-[(R)-1-(2-{5-[4-(2H-Pyrazol-3-yl)-phenoxy]-indazol-2-yl}-ethyl)-pyrrolidin-3-yl]-acetamide] |
| 0.32 | 200 | c1cc(-c2ccc(Oc3ccc4[nH]c(CC5CCOCC5)nc4c3)cc2)[nH]n1 [Example 202, 5-[4-(2H-Pyrazol-3-yl)-phenoxy]-2-(tetrahydro-pyran-4-ylmethyl)-1H-benzoimidazole] |
| 0.77 | 200 | O=C1OCCN1C1CCN(CC2Cc3ccc(Oc4ccc(-c5ccn[nH]5)cc4)cc3O2)CC1 (stereo not shown) [Example 203, 3-(1-{6-[4-(2H-Pyrazol-3-yl)-phenoxy]-2,3-dihydro-benzofuran-2-ylmethyl}-piperidin-4-yl)-oxazolidin-2-one] |
| 0.98 | 210 | OC1CCN(Cc2ccc3cc(Oc4ccc(-c5ccn[nH]5)cn4)ccc3n2)CC1 [Example 204, 1-{6-[5-(2H-Pyrazol-3-yl)-pyridin-2-yloxy]-quinolin-2-ylmethyl}-piperidin-4-ol] |
| 1.2 | 210 | CO[C@@H]1CCN(Cc2ccc3cc(Oc4ccc(-c5ccn[nH]5)cn4)ccc3n2)C1 [Example 205, 2-((R)-3-Methoxy-pyrrolidin-1-ylmethyl)-6-[5-(2H-pyrazol-3-yl)-pyridin-2-yloxy]-quinoline] |
| 0.42 | 210 | c1cc(-c2ccc(Oc3ccc4nn(CCNCC5CCOCC5)cc4c3)cc2)[nH]n1 [Example 206, (2-{5-[4-(2H-Pyrazol-3-yl)-phenoxy]-indazol-2-yl}-ethyl)-(tetrahydro-pyran-4-ylmethyl)-amine] |
| 0.17 | 220 | c1cc(-c2ccc(Oc3ccc4[nH]c(C[C@@H]5CCCN5)nc4c3)cc2)[nH]n1 [Example 207, 5-[4-(2H-Pyrazol-3-yl)-phenoxy]-2-(S)-1-pyrrolidin-2-ylmethyl-1H-benzoimidazole] |
| 1.2 | 220 | CO[C@H]1CCN(Cc2ccc3cc(Oc4ccc(-c5ccn[nH]5)cn4)ccc3n2)C1 [Example 208, 2-((S)-3-Methoxy-pyrrolidin-1-ylmethyl)-6-[5-(2H-pyrazol-3-yl)-pyridin-2-yloxy]-quinoline] |
